Measured values as given in US8420852B2, “Phospholipase A2 inhibitors and their use in treating neurological injury and disease” (The Regents of the University of California, priority 2007, dated 2013).
Entries after “also recorded” stand apart in the source; their conditions may differ.

Tests used:
GIIA PLA2 = target: T1, GIIA PLA2 (Homo sapiens, UniProt P14555); assay: vesicle assay for GIIA PLA2; type: biochemical
T1 sequence (P14555 21-144): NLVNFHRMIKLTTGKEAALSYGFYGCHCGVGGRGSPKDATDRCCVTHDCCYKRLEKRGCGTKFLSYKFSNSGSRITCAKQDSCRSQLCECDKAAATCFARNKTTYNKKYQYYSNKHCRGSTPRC
Text: Vesicle assays have generally been employed for this enzyme, but they have limitations for in vitro comparison of inhibitor potency.

[1] = system: BALB/c mice with spinal cord contusion; assay: spinal cord contusion (SCI) model, locomotor recovery and histology; type: in vivo, mouse
[2] = system: chemokine and cytokine protein expression in spinal cord; assay: mouse inflammation antibody array of spinal cords of EAE mice; type: in vivo; details: treatment from day 5, tissue day 18
Description: Spinal cords were removed from vehicle and inhibitor treated animals when the vehicle-treated mice reached the peak of disease (score of 4). The tissues were then homogenized in lysis buffer and centrifuged at 1000×g. These protein samples were then assessed using the Raybio® inflammatory antibody array from RayBiotech Inc (Norcross, Ga.). Briefly, blocking buffer was added to glass-chip slides, which are coated with antibodies against chemokine, cytokine and related proteins. The slides were then incubated with the various protein samples from the treatment and control groups. After washing the glass slides, they were incubated sequentially with a biotin conjugated secondary antibody solution, horseradish peroxidase (HRP)-conjugated strepavidin, and HRP detection buffer. The signals were then visualized by chemiluminescence. Densitometric analysis was performed to detect differences between the various samples using ImageQuant 5.1 software (Molecular Dynamics). Positive control signals were used to normalize the level of expression from different glass slides being compared. Experiments were repeated with 3 different samples (n=3), and all the detection and analysis was done blind.
The results of this group of experiments are shown with the reference to FIGS. 15 and 16. FIG. 15 provides graphs showing the level of protein expression of chemokines in spinal cords of naive mice and EAE mice treated with PLA2 inhibitors starting on day 5. Tissues were taken on day 18, when the vehicle treated animals reached the peak of the first clinical attack. The data are shown for inhibitors AX059 (FIG. 15a) and AX115 (FIG. 15b). Data represent means±SEM from 3 animals in each group. In the figures, * represents a significant decrease, while ** represents a significant increase as compared to vehicle treated EAE controls.
FIG. 16 provides graphs showing the level of protein expression of cytokines in spinal cords of naive mice and EAE treated mice treated with PLA2 inhibitors starting on day 5. Tissues were taken on day 18, when the vehicle treated animals reached the peak of the first clinical attack. The data are shown for inhibitors AX059 (FIG. 16a) and AX115 (FIG. 16b). Data represent means±SEM from 3 animals in each group. In the figures, * represents a significant decrease, while ** represents a significant increase as compared to vehicle treated EAE controls.
Changes were assessed in protein expression of 40 chemokines and cytokines, their receptors and related molecules, using a mouse antibody array (RayBiotech Inc.). The analysis was carried out on spinal cords from mice treated with inhibitors starting from day 5 post-immunization. Tissue was taken on day 18 when the control vehicle-treated mice reached the peak of the first clinical attack. 12 chemokines were increased in vehicle-treated mice (FIG. 15), most of which are known to play a role in EAE, except for LIX (CXCL5) and TECK (CCL25), whose functions in CNS autoimmune disease remain unclear. […] In contrast, the pan-inhibitor AX115, which inhibits sPLA2 greater than AX059 reduced the expression of 7 of the 12 chemokines (FIG. 15b). Importantly, it increased the expression of eotaxin-2 (1.8-fold), RANTES (9.6-fold) and MIP-1 γ (9.7-fold) […], which can also regulate the allergic arm of the immune response.

[3] = system: fatty acids attached to phospholipid classes in spinal cord; assay: lipid profiling of spinal cords of EAE mice (fatty acid hydrolysis); type: in vivo, mouse; details: for Treatment: mean ± SD, n=3; for % Difference: treated EAE vs naive
Description: Spinal cords were removed from vehicle and inhibitor treated animals at the peak stage of disease when the vehicle-treated mice reached the clinical score of 4, and the tissue snap frozen in liquid nitrogen. Lipid profiling was carried out by Lipomics Technology Inc. (West Sacramento, Calif.). The tissues were then extracted for either TrueMass® lipid profiling, or an eicosanoid inflammatory panel analysis. The lipids from the tissues were extracted in the presence of authentic internal standards as previously described (55), using chloroform:methanol (2:1 v/v). Individual lipid classes within each extract were separated by liquid chromatography (Agilent Technologies model 1100 Series). Each lipid class was trans-esterified in 1% sulfuric acid in methanol in a sealed vial under a nitrogen atmosphere at 100° C. for 45 min. The resulting fatty acid methyl esters were extracted from the mixture with hexane containing 0.05% butylated hydroxytoluene and prepared for gas chromatography by sealing the hexane extracts under nitrogen. Fatty acid methyl esters were separated and quantified by capillary gas chromatography (Agilent Technologies model 6890) equipped with a 30 m DB-88MS capillary column (Agilent Technologies) and a flame-ionization detector. Lipomic Surveyor® software was used to visualize changes within the treated groups. Experiments were repeated with 3 different samples (n=3), and all the detection and analysis was done blind.
As PLA2s hydrolyze fatty acids from the sn-2 position of phospholipids, a comprehensive profiling was carried out of 40 fatty acids (FAs) that are attached to 5 phospholipid classes in extracts of spinal cords of naive mice, EAE mice treated with vehicle, and PLA2 inhibitor-treated EAE mice. […] These tissues were taken from the same groups of mice used for the chemokine/cytokine assay described above.

CCCCCCCCCCCCCCC(=O)C(=O)NCC(=O)OC [AX115]
inhibition of GIIA compared with GV PLA2 (GIIA PLA2): comparable inhibition | neuron survival in ventral horn (cresyl violet) ([1]; 300 to 1000 μm rostral and caudal to lesion epicenter, 28 dpi, vs vehicle): significantly greater neuron survival; also recorded: significantly better survival of ventral horn neurons; also recorded: greater number of neuronal profiles | serotonergic innervation ([1]; 1000 μm caudal to lesion epicenter, 28 dpi, vs vehicle): significantly greater serotonergic innervation; also recorded: marked increase of serotonergic fibers | BMS score ([1]; 28 days after SCI, vehicle 4.6, 9-point scale): 6.6 | locomotor function (BMS scores) vs vehicle treated injured mice ([1]; daily i.p. 6.85 mg/kg from 1 h after contusion for 14 days, significant from 5 dpi, 6.85 mg/kg): marked improvement in the BMS scores; also recorded: markedly improved locomotor function | myelin loss (Luxol fast blue) ([1]; epicenter and 300 μm rostral and caudal, 28 dpi, vs vehicle): marked reduction of myelin loss | tissue sparing (GFAP staining) ([1]; lesion epicenter and adjacent regions, 28 dpi, vs vehicle): significant amount of tissue sparing; also recorded: significant tissue protection; also recorded: marked reduction in tissue loss | improvement in BMS subscores (fine locomotor control) ([1]; vs vehicle): 4 points | increase in the density of 5-HT fibers within the lateral funiculi and ventral horns ([1]; vs vehicle): 3 fold | number of chemokines reduced ([2]; of the 12 chemokines increased in vehicle-treated EAE mice): 7 | number of cytokines reduced ([2]; of the 13 cytokines increased in vehicle-treated EAE mice): 9 | increase in expression of IL-10 ([2]; spinal cord): failed to increase IL-10 | increase in expression of MIP-1 γ ([2]; spinal cord): 9.7 fold | increase in expression of RANTES ([2]; spinal cord): 9.6 fold | increase in expression of eotaxin-2 ([2]; spinal cord): 1.8 fold | increase in soluble TNF receptor 1 (sTNFR1) ([2]; spinal cord): ~4 fold | Treatment ([3]; Cardiolipin - arachidic, naive 464.0 ± 69.4): 324.4 ± 27.5 nmol | % Difference ([3]; Cardiolipin - arachidic): 30.1% | Treatment ([3]; Cardiolipin - eicosapentaenoic, naive 16.1 ± 4.8): 3.2 ± 5.5 nmol | % Difference ([3]; Cardiolipin - eicosapentaenoic): 80.3% | Treatment ([3]; Phosphatidylcholine - arachidic, naive 347.9 ± 20.1): 269.4 ± 24.9 nmol | % Difference ([3]; Phosphatidylcholine - arachidic): 22.5% | Treatment ([3]; Phosphatidylcholine - eicosenoic, naive 1666.2 ± 46.4): 1393.4 ± 52.5 nmol | % Difference ([3]; Phosphatidylcholine - eicosenoic): 16.4% | % Difference ([3]; Phosphatidylcholine - erucic): 22.4% | Treatment ([3]; Phosphatidylserine - tetracosahexanoic, naive 9.7 ± 0.8): 6.4 ± 0.6 nmol | % Difference ([3]; Phosphatidylserine - tetracosahexanoic): 33.8% | Treatment ([3]; Phosphatidylserine-1-enyl-octadecenoic, naive 217.4 ± 37.9): 133.3 ± 32.5 nmol | % Difference ([3]; Phosphatidylserine-1-enyl-octadecenoic): 38.7%
